Experimental data reported in patent US9180163B2, “Parstatin peptides” (priority 2009, dated 2015).
Ends that are not written are not given here.

Experiments:
[1] = test system: myocardial ischemia-reperfusion injury in Sprague Dawley rats; settings: for infarct size, inhibitor alone: without parstatin (1-26), L-NMA 15 μg/Kg, ODQ 1 mg/kg, glibenclamide 3 mg/kg, atractyloside 3 mg/Kg
Experimental: Parstatin (1-41) was used in an in vivo rat model of cardiac ischemia and reperfusion, and in an in vitro isolated rat heart model of ischemia-reperfusion injury.
For in vivo infarct size studies, rats were anesthetized with pentobarbital sodium (50 mg/Kg) and heparin (1000 IU/Kg) and underwent 30 min of regional ischemia followed by 120 min of reperfusion. Parstatin (1-41) was administered-intravenously over 1 min starting 15 min prior to ischemia, or 15 min after the onset of ischemia, or 10 seconds after the onset of reperfusion in separate series of experiments (n=6/group).
To induce ischemia, ligature was positioned around the left main coronary artery and threaded through a plastic snare to permit reversible occlusion of the coronary artery. Coronary occlusion was induced by clamping the snare onto the heart and reperfusion was achieved by releasing the snare. At the end of reperfusion, the coronary artery was re-occluded and the risk zone was delineated by perfusion of 0.5% Evans' blue into the aortic cannula. Hearts were sectioned and incubated in 1% triphenyltetrazolium chloride in phosphate buffer for 15 min to define white necrotic tissue when fixed in 10% formalin for 24 h. Area at risk (AAR) and infarct-to-risk rations were determined by computerized planimetry using J-Image v.i.6 software (NIH, Bethesda, Mass.).
For in vivo infarct size/ischemia-reperfusion studies, rats were anesthetized with pentobarbital sodium (50 mg/Kg) and heparin (1000 IU/Kg) and underwent 30 min of regional ischemia followed by 120 min of reperfusion. Human hydrophobic parstatin (1-26) fragment was administered intravenously over 1 min at one of three time points: 1) starting 15 min prior to ischemia, 2) 15 min after the onset of ischemia, or 3) 10 seconds after the onset of reperfusion in a separate series of experiments (n=6/group).
Ischemia was induced by placement of a ligature around the left main coronary artery which was threaded through a plastic snare to permit reversible occlusion of the coronary artery. Coronary occlusion was induced by clamping the snare onto the heart and reperfusion was achieved by releasing the snare. At the end of reperfusion, the coronary artery was re-occluded and the risk zone was delineated by perfusion 0.5% Evans' blue into the aortic cannula.
Hearts were sectioned and incubated in 1% triphenyltetrazolium chloride in phosphate buffer for 15 min to define white necrotic tissue when fixed in 10% formalin for 24 h. Area at risk (AAR) and infarct-to-risk rations were determined by computerized planimetry using J-Image v.i.6 software (NIH, Bethesda, Mass.). The principal endpoint of these studies was infarct size expressed as a percentage of the area at risk.

[2] = test system: choroidal neovascularization in C57BL/6J mice; format: in vivo; settings: mouse, in vivo
Experimental: Parstatin (1-41), hydrophobic parstatin (1-26) fragment and hydrophilic parstatin (24-41) fragment were used in an in vivo mouse model of choroidal neovascularization. In particular, laser photocoagulation-induced rupture of Bruch's membrane was used to generate choroidal neovascularization as a preclinical disease model for age-related macular degeneration. Pathogen-free C57BL/6J (4-5 week-old) mice were treated in accordance with the Association for Research in Vision and Ophthalmology Statement for the Use of Animals in Ophthalmic and Vision Research and the guidelines of the Animal Care and Use Committee at local University Medical School.
C57BL/6J (4-5 week-old) mice were anesthetized with ketamine hydrochloride (100 mg/kg body weight) and xylazine-(4 mg/Kg body weight) and the pupils were dilated with 1% tropicamide. Laser photocoagulation (75 μm spot size, 0.1 sec duration, 120 mW) was performed in the 9, 12, and 3 o'clock positions of the posterior pole of the retina with the slit lamp delivery system of an Oculight GL diode laser (Index, Mountain View, Calif.) and a handheld cover slip as a contact lens to view the retina. Production of a bubble at the time of laser, which indicates rupture of Bruch's membrane, is an important factor in obtaining CNV. Therefore, only burns in which a bubble was produced were included in the study. Two weeks after rupture of Bruch's membrane, anesthetized mice were perfused with 50 mg/ml fluorescein-labelled-dextran (2×10^6 average molecular weight, Sigma-Aldrich, St. Louis, Mo.). The eyes were then dissected and fixed in 10% Formalin for 3 hours and choroidal flat mounts were examined by fluorescence microscopy. Image-Pro Plus software (Media Cybernetics, Silver Spring, Md.) was used to measure the total area of CNV at each rupture site by personnel blinded as to study treatments and groups.
Intraocular injections of parstatin peptides were performed with a Harvard pump microinjection apparatus and pulled glass micropipets. […] Choroidal neovascularization was assessed 14 days after laser treatment.

[3] = test system: retinal neovascularization in C57BL/6 mice; format: in vivo; settings: mouse, in vivo
Excerpt: Parstatin (1-41), hydrophobic parstatin (1-26) fragment and hydrophilic parstatin (24-41) fragment were used in an in vivo mouse model of retinal neovascularization. In particular, oxygen-induced retinopathy was used to generate retinal neovascularization as a preclinical disease model for retinopathy of prematurity and other retinal neovascular diseases such as diabetic retinopathy. In this model, exposing newborn mice to hyperoxia prompts regression or delay of retinal vascular development, followed by abnormal angiogenesis after their return to normal oxygen levels. Mainly, this model mirrors the events that occur during retinopathy of prematurity, when infants are removed from oxygen-rich incubators, a condition involving pathological neovascularization that can affect premature infants and result in permanent visual loss. In recent years, the use of this model has been extended to the general study of ischemic vasculopathies, such us diabetic retinopathy, and related antiangiogenic interventions, and it is now used extensively in both basic and applied research environments.
Pathogen-free C57BL/6 mice were treated in accordance with the Association for Research in Vision and Ophthalmology Statement for the Use of Animals in Ophthalmic and Vision Research and the guidelines of the Animal Care and Use Committee at local University Medical School. Litters of 7-day old (P7) mice were exposed to an atmosphere of 75% oxygen in an airtight incubator for 5 days (P12), after which they were returned to room air for 5 days (P17). For quantification of oxygen-induced retinal neovascularization, mice on P17 were given an intraocular injection of 1 μl of rat anti-mouse platelet endothelial cell adhesion molecule-1 (PECAM-1) antibody (Pharmingen, San Jose, Calif.) under a dissecting microscope with Harvard pump microinjection apparatus. Mice were euthanized 12 hours after injection and eyes were fixed in PBS-buffered formalin for 5 hours. […] Retinal flat mounts were prepared and assessed with fluorescence microscope using imaging software. […]

isolated rat hearts = assay: isolated rat heart ischemia-reperfusion; settings: for infarct size / LVDP, inhibitor alone: without parstatin (1-41), L-NMA 100 μM, ODQ 10 μM
Experimental: For in vitro studies, excised hearts were retrogradely perfused through the aorta with a modified Krebs buffer. Coronary flow rate was determined by timed collection of the coronary effluent. A saline-filled latex balloon connected to a pressure transducer was inserted into the left […] (LV), and baseline end-diastolic pressure was set at 5-10 mmHg. Heart rate, LV end-diastolic pressure and LV developed pressures (LVDP) were recorded continuously. The measurements for post-ischemic recovery of LVDP used for comparison were taken at 180 min of reperfusion. After stabilization for 15-20 min, the hearts (n=6/group) were subjected to 30 min of regional ischemia, followed by 180 min of reperfusion. Different concentrations of […] (1-41) were perfused 15 min prior to coronary occlusion until occlusion. Control hearts produced an infarct size of 51±3% of the area at risk (FIG. 19A). […] A picture representation of infarct in control versus […] Similarly, […] (1-41) increased recovery of LVDP in a concentration-dependent manner (FIG. 19B). Again, the optimal concentration was 1 μM which produced a 23% recovery of LVDP (FIG. 19B).

HUVEC cells = assay: [3H]-thymidine incorporation (DNA synthesis); format: cell-based, human; settings: 10 μM, bFGF 5 ng/ml
Experimental: The ability of parstatin (1-41) to inhibit DNA synthesis of endothelial cells was assessed in thymidine incorporation assays. HUVEC cells were grown until 60-80% confluent in 24-well plates. Cells were treated with indicated peptides in serum-free medium containing either 0.5% BSA, or VEGF, or bFGF, or medium containing 5% FBS, or epidermal growth factor (EGF), or heparin-binging EGF (HB-EGF) for 18 hours. All cells were pulsed with 0.5 μCi/ml [3H]-thymidine (ICN Biomedicals Inc., Irvine Calif.) for additional 6 h. Radioactivity incorporated into DNA was determined in liquid scintillation counter.

[4] = test system: Erk1/2 (p42/44 MAPK) in HUVEC cells; assay: Erk1/2 phosphorylation immunoblot (MAP kinase pathway); format: cell-based, human; settings: pretreatment 1 h, 10 μM; stimulated by FBS, bFGF or VEGF
Experimental: The MAPK (Erk1/2, p42/44) cascade mediates mitogenesis. […] HUVEC cells were cultured in 35 mm tissue culture dishes. After reaching 80% confluency, cells were growth factor-starved and subsequently stimulated for 10 min with vehicle or indicated agents. In combination experiments, cells were pretreated with parstatin or other peptides for 10 to 60 min.
Attached cells were lysed with Laenmli sample buffer, resolved in 10% SDS-PAGE, and transferred to nitrocellulose membranes. Membranes were incubated with primary antibodies against phospho p42/44 mitogen-activated protein kinases (p-Erk1/2, New England Biolabs, UK) and p42/44 Erk1/2 (t-Erk1/2, New England Biolabs, UK). Membranes were then probed with secondary antibodies horseradish peroxidase-conjugated, and proteins were visualized by chemiluminescent detection.

Row | Compound | infarct size, inhibitor alone [1] | infarct size / LVDP, inhibitor alone (isolated rat hearts) | further results
1 | C=C1[C@@H]2CC[C@H]3[C@]4(C)C[C@H](O[C@@H]5O[C@H](CO)[C@@H](OS(=O)(=O)O)[C@H](OS(=O)(=O)O)[C@H]5OC(=O)CC(C)C)C[C@@H](C(=O)O)[C@H]4CC[C@]3(C2)[C@H]1O [Atractyloside, atractyloside, reference compound] | no effect | – | –
2 | MGPRRLLLVAACFSLCGPLLSARTRARRPESKATNATLDPR (cysteines drawn unpaired) [parstatin (1-41)] | – | – | tolerability (slit lamp: irritation, inflammation, ocular toxicity; systemic toxicity) [2]: well tolerated; tolerability in newborn mice [3]: not well tolerated; inotropic or chronotropic effects before ischemia (isolated rat hearts; 1 μM): did not have inotropic or chronotropic effects; baseline hemodynamics (heart rate, blood pressures) between groups ([1]; rat, in vivo): no significant differences
3 | O=c1onc2cnc3ccccc3n12 [ODQ, 1H-[1,2, 4]oxadiazolo-[4,3-a]quinoxalin-1-one, reference compound] | no effect | no effect | –
4 | COc1ccc(Cl)cc1C(=O)NCCc1ccc(S(=O)(=O)NC(=O)NC2CCCCC2)cc1 [Glibenclamide, glibenclamide, reference compound] | no effect | – | –
5 | MGPRRLLLVAACFSLCGPLL-SARALTRSAPTPRDRANKETR (MGPRRLLLVAACFSLCGPLLSARALTRSAPTPRDRANKETR; Scrambled synthetic peptide) [modulated parstatin, human parstatin with amino acids 24 to 41 scrambled] | – | – | bFGF-induced DNA synthesis (HUVEC cells): inhibit; activation of Erk1/2 [4]: inhibit
6 | COC(=O)[C@@H](N)CCCNC(=N)N[N+](=O)[O-] [L-NMA, Nω-nitro-L-arginine methyl ester, reference compound] | without effect | no effect | –
